Like-named read-outs stand apart in the source and are kept apart here.
Tests used:
SARS-CoV-2 3CLpro [1] = molecular target: T1, SARS-CoV-2 3CLpro (Severe acute respiratory syndrome coronavirus 2, UniProt P0DTD1); assay: biochemical; settings: for inhibition at 100 µM: compound concentration 100 μM; for inhibition at 100 µM / inhibition at 10 µM: read-out: Inhibition rate (%) against 3CLpro; for IC50: FRET assay, serial dilution, read-out: IC50 against SARS-CoV-2 3CLpro; for inhibition at 10 µM: compound concentration 10 μM
T1 construct: The kit contains assay buffer (125 mL, blank control), 2019-nCoV-2 3CLpro (500 μL), substrate (1 mL); purchased Beyotime Biotechnology (Shanghai, China) P0312M

SARS-CoV-2 3CLpro [2] = molecular target: T1, SARS-CoV-2 3CLpro; set-up: method as in PMID 32963564; settings: in vitro; read-out: IC50 on SARS-CoV-2 3CLpro protein activity; cited from earlier work

Row | SMILES | inhibition at 100 µM (SARS-CoV-2 3CLpro [1]) [%] | IC50 (SARS-CoV-2 3CLpro [1]) [µM] | inhibition at 10 µM (SARS-CoV-2 3CLpro [1]) [%] | IC50 (SARS-CoV-2 3CLpro [2]) [µM]
1 | Oc1cc(O)c2c(c1)O[C@H](c1ccc(O)c(O)c1)[C@H](O)C2 [Compound 1, (−)-epicatechin] | > 50 | – | – | –
2 | Oc1cc(O)c2c(c1)O[C@H](c1cc(O)c(O)c(O)c1)[C@H](O)C2 [Compound 4, (−)-epigallocatechin] | – | 12 ± 1.9 | > 50 | –
3 | O=C(O[C@@H]1Cc2c(O)cc(O)cc2O[C@@H]1c1cc(O)c(O)c(O)c1)c1cc(O)c(O)c(O)c1 [Compound 5, (−)-epigallocatechin-3-O-gallate] | – | – | > 50 | –
4 | COc1cc(C(=O)O[C@@H]2Cc3c(O)cc(O)cc3O[C@@H]2c2cc(O)c(O)c(O)c2)cc(O)c1O [Compound 6, (−)-epigallocatechin-3-(3′-O-methyl)-gallate] | – | 9.8 ± 0.4 | > 50 | –
5 | O=C(O[C@@H]1Cc2c(O)cc(O)cc2O[C@@H]1c1ccc(O)cc1)c1cc(O)c(O)c(O)c1 [Compound 7, (−)-epiafzelechin-3-O-gallate] | > 50 | – | – | –
6 | O=C(O[C@H]1Cc2c(O)cc(O)cc2O[C@@H]1c1cc(O)c(O)c(O)c1)c1cc(O)c(O)c(O)c1 [Compound 9, (−)-gallocatechin-3-O-gallate] | – | – | > 50 | –
7 | CCN1C(=O)CC[C@@H]1c1c(O)cc2c(c1O)C[C@@H](O)[C@@H](c1cc(O)c(O)c(O)c1)O2 [Compound 11, 6-(5″R)-N-ethyl-2-pyrrolidinone-epigallocatechin] | > 50 | 22.4 ± 5.8 | – | –
8 | CCN1C(=O)CC[C@H]1c1c(O)cc2c(c1O)C[C@@H](O)[C@@H](c1cc(O)c(O)c(O)c1)O2 [Compound 12, 6-(5″S)-N-ethyl-2-pyrrolidinone-epigallocatechin] | > 50 | 26.8 ± 0.9 | – | –
9 | CCN1C(=O)CC[C@H]1c1c(O)cc(O)c2c1O[C@H](c1cc(O)c(O)c(O)c1)[C@H](O)C2 [Compound 14, puerin V] | > 50 | 14.9 ± 1.4 | – | –
10 | CCN1C(=O)CC[C@@H]1c1c(O)cc(O)c2c1O[C@H](c1cc(O)c(O)c(O)c1)[C@H](O)C2 [Compound 15, puerin VI] | > 50 | 14.5 ± 1.1 | – | –
11 | COc1cc(C(=O)O[C@@H]2Cc3c(O)cc(O)cc3O[C@@H]2c2cc(O)c(O)c(O)c2-c2c([C@H]3Oc4cc(O)cc(O)c4C[C@H]3O)cc(O)c(O)c2O)cc(O)c1O [Compound 20, Epigallocatechin-(2′→2′)-epigallocatechin-3-(3″-O-methyl)-gallate] | > 50 | 42.1 | – | –
12 | O=C(O[C@@H]1Cc2c(O)cc(O)cc2O[C@@H]1c1cc(O)c(O)c(O)c1-c1c([C@H]2Oc3cc(O)cc(O)c3C[C@H]2OC(=O)c2cc(O)c(O)c(O)c2)cc(O)c(O)c1O)c1cc(O)c(O)c(O)c1 [Compound 21, theasinensin A] | > 50 | – | – | –
13 | C[C@@H]1O[C@@H](OC[C@H]2O[C@@H](Oc3c(-c4ccc(O)cc4)oc4cc(O)cc(O)c4c3=O)[C@H](OC(=O)/C=C\c3ccc(O)cc3)[C@@H](O)[C@H]2O)[C@H](O)[C@H](O[C@@H]2O[C@H](CO)[C@@H](O)[C@H](O)[C@H]2O)[C@H]1O [Compound 32, Kaempferol-3-O-[2″-O-(Z)-p-coumaroyl] [β-D-glucopyranosyl-(1→3)-O-α-L-rhamnopyranosyl-(1→6)]-β-D-galactopyranoside] | > 50 | 61.1 | – | –
14 | O=c1c(O)cc([C@H]2Oc3cc(O)cc(O)c3C[C@H]2O)cc2c([C@H]3Oc4cc(O)cc(O)c4C[C@H]3O)cc(O)c(O)c12 [theaflavin] | – | – | – | 15

Source: article PMC11901911, “Diverse Structures of Tea Polyphenols from Rougui Wuyi Rock Tea and Their Potential as Inhibitor of 3C-like Protease” (Molecules, 2025)
